Patent US11690824B2, “Antibacterial compounds” (THE GENERAL HOSPITAL CORPORATION, priority 2018, dated 2023)
Converted amounts (≈) assume the structure as drawn. Read-outs that look alike come from different tables or passages of the source.

Key:
MRSA MW2 = assay: SYTOX Green membrane permeability assay; format: cell-based, S. aureus
Experimental: SYTOX Green membrane permeability assay. […] The washed cells were adjusted to OD600=0.4 with PBS. SYTOX Green (Molecular Probes, Waltham, Mass., USA) was added to 10 mL of the diluted bacterial suspension to a final concentration of 5 μM and incubated for 30 min at room temperature in the dark. 50 μL of the bacteria/SYTOX Green suspension was mixed with 50 μl of PBS containing twice the desired concentrations of compounds in black, clear-bottom, 96-well plates (Corning no. 3904). Fluorescence was measured at room temperature using a spectrophotometer (SpectraMax M2, Molecular Devices), with excitation and emission wavelengths of 485 nm and 525 nm, respectively. All experiments were conducted in biological triplicate.

S. aureus (MRSA) MW2 = assay: Minimal inhibitory concentration (MIC) assay, micro-dilution; format: cell-based; conditions: for MIC: Example 5, MRSA MW2
Description: Bacterial strains, growth conditions, and persister isolation. Methicillin-resistant S. aureus strains, MW2 BAA-1707, ATCC 33591, and JE2, methicillin-susceptible S. aureus strains, NCTC 8325, Newman, and ATCC 29213, vancomycin-resistant S. aureus strain, VRS1, Enterococcus faecium E007, vancomycin-resistant E. faecium strains, C68,^7 WB312, and WC196, Klebsiella pneumoniae WGLW2 (BEI Resources, Manassas, Va., USA), Acinetobacter baumannii ATCC 17978, Pseudomonas aeruginosa PA14, and Enterobacter aerogenes ATCC 13048 were used to test antimicrobial activity (Table 1). S. aureus strains were grown in tryptic soy broth (TSB) (BD, Franklin Lakes, N.J., USA), and E. faecium was grown in brain-heart infusion (BHI) broth (BD, Franklin Lakes, N.J., USA) at 37° C. K. pneumoniae, A. baumannii, P. aeruginosa, and E. aerogenes were grown in Luria Bertani (LB) broth (BD, Franklin Lakes, N.J., USA) at 37° C.
Minimal inhibitory concentration (MIC) assay. The MICS of antibiotics were determined by the standard micro-dilution method recommended by the Clinical and Laboratory Standards Institute. MIC assays were conducted in biological triplicate.

human erythrocytes = assay: Human blood hemolysis; format: cell-based; conditions: 32 μg/ml
Experimental: Human blood hemolysis. Hemolytic activity was evaluated as described in a previous study. Briefly, 100 μL of 4% human erythrocytes (Rockland Immunochemicals, Limerick, Pa., USA) was added to 100 μL of 2-fold serial dilutions of compounds in PBS, 0.2% DMSO (negative control), or 2% Triton-X 100 (positive control) in a 96-well plate. The 96-well plate was incubated at 37° C. for 1 h and then centrifuged at 500× g for 5 min. 50 μL of the supernatant was transferred to a fresh 96-well plate, and absorbance of supernatants was measured at 540 nm. Percent hemolysis was calculated using the following equation: (A540 nm of compound treated sample−A540 nm of 0.1% DMSO treated sample)/(A540 nm of 1% Triton X-100 treated sample−A540 nm of 0.1% DMSO treated sample)×100. HC50 (concentration of a compound causing 50% hemolysis) was determined using SigmaPlot 10.0 (Systat Software Inc., San Jose, Calif., USA).

HKC-8 = assay: Cytotoxicity (WST-1); format: cell-based; conditions: 32 μg/ml
Experimental: (§1) Cytotoxicity. […] HepG2 and HKC-8 cells were grown in Dulbecco's modified Eagle F-12 media mixed 1:1 with Ham's F-12 (DMEM/F-12, Life Technologies, Carlsbad, Calif., USA) supplemented with 10% FBS and 4 mM L-glutamine at 37° C. in 5% CO2. For cytotoxicity assays, HepG2 or HKC-8 was cultured in 96-well plates in 100 μL/well of the proper media to reach 70-80% confluence. The cells were then treated with a range of concentrations of nTZDpa or its analogs for 72 h. 10 μL of WST-1 (Roche, Mannheim, Germany) was added per well for the last 4 h of the 72 h period. WST-1 reduction was measured at absorbance 450 nm. The percent […] relative to that of the no-treatment control was calculated. The assay was carried out in biological triplicate.

HepG2 = assay: Cytotoxicity (WST-1); format: cell-based; conditions: 32 μg/ml
Experimental: as §1

Structure (SMILES)	concentration inducing SYTOX Green fluorescence (MRSA MW2)	MIC (S. aureus (MRSA) MW2; Staphylococcus aureus, read-out: MIC)	antibiotic activity / potency relative to nTZDpa (S. aureus (MRSA) MW2; growing S. aureus cells)	hemolysis of human erythrocytes (human erythrocytes)	MIC (S. aureus (MRSA) MW2)	cell death of HKC-8 (HKC-8)	cell death of HepG2 (HepG2)
COc1c(C(=O)O)n(Cc2ccc(Cl)cc2)c2ccc(Cl)cc12 [Compound S14, 5-chloro-1-(4-chlorobenzyl)-3-methoxy-1H-indole-2-carboxylic acid]	64 µg/mL	32 µg/mL (≈ 91.4 µM)	reduction of antibiotic activity				
O=C(O)c1c(Sc2ccccc2)c2ccc(Cl)cc2n1Cc1ccc(Cl)cc1 [Analog 2a]				did not significantly cause hemolysis	same MIC	did not display a significant level of cytotoxicity	did not display a significant level of cytotoxicity
